Source: the supplement of paper PMC11061612

Assays:
Experiment in all cases: Bliss excess, mean over the matrix (fraction); higher = more synergy
NCI-H2591 (Mesothelioma) = test system: NCI-H2591 (Mesothelioma)
Outline: (§1)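 Cell lines grown in DMEM/F12 or RPMI with 10% FBS were plated in 1536-well plates and held 24 hours at 37°C, 5% CO2 before 72 hours of exposure to two-drug dose matrices, with DMSO typically at 0.2%. CellTiter-Glo 2.0 luminescence gave viability, which was converted to inhibition. Vehicle wells were set to 0 and blank wells to 1. Combination Emax is the second-highest inhibition in the matrix, and Bliss excess is the observed combination effect minus the expected EA + EB − EA·EB, where EA and EB are the single-agent effects.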

[1] = test system: PANC-10-05 (Pancreatic Carcinoma)
Outline: as §1

[2] = test system: OS-RC-2 (Kidney Carcinoma)
Outline: as §1

[3] = test system: ONS-76 (Other Solid Carcinomas)
Outline: as §1

[4] = test system: NCI-H2066 (Squamous Cell Lung Carcinoma)
Outline: as §1

GI-ME-N (Neuroblastoma) = test system: GI-ME-N (Neuroblastoma)
Outline: as §1

[5] = test system: CAPAN-2 (Pancreatic Carcinoma)
Outline: as §1

[6] = test system: NCI-H2141 (Small Cell Lung Carcinoma)
Outline: as §1

Hs-445 (Non-Cancerous) = test system: Hs-445 (Non-Cancerous)
Outline: as §1

IGR-37 (Melanoma) = test system: IGR-37 (Melanoma)
Outline: as §1

[7] = test system: NCI-H1693 (Lung Adenocarcinoma)
Outline: as §1

FU97 (Gastric Carcinoma) = test system: FU97 (Gastric Carcinoma)
Outline: as §1

[8] = test system: HCC1954 (Breast Carcinoma)
Outline: as §1

[9] = test system: TT2609-C02 (Thyroid Gland Carcinoma)
Outline: as §1

[10] = test system: JSC-1 (B-Cell Non-Hodgkin's Lymphoma)
Outline: as §1

[11] = test system: SISO (Cervical Carcinoma)
Outline: as §1

[12] = test system: MDST8 (Colorectal Carcinoma)
Outline: as §1

[13] = test system: COLO-824 (Breast Carcinoma)
Outline: as §1

8-MG-BA (Glioblastoma) = test system: 8-MG-BA (Glioblastoma)
Outline: as §1

[14] = test system: KARPAS-422 (B-Cell Non-Hodgkin's Lymphoma)
Outline: as §1

SMILES | Bliss excess (NCI-H2591 (Mesothelioma)) | Bliss excess [1] | Bliss excess [2] | Bliss excess [3] | Bliss excess [4] | Bliss excess (GI-ME-N (Neuroblastoma)) | Bliss excess [5] | Bliss excess [6] | Bliss excess (Hs-445 (Non-Cancerous)) | Bliss excess (IGR-37 (Melanoma)) | Bliss excess [7] | Bliss excess (FU97 (Gastric Carcinoma)) | Bliss excess [8] | Bliss excess [9] | Bliss excess [10] | Bliss excess [11] | Bliss excess [12] | Bliss excess [13] | Bliss excess (8-MG-BA (Glioblastoma)) | Bliss excess [14]
CC1(C)CCC(CN2CCN(c3ccc(C(=O)NS(=O)(=O)c4ccc(NCC5CCOCC5)c([N+](=O)[O-])c4)c(Oc4cnc5[nH]ccc5c4)c3)CC2)=C(c2ccc(Cl)cc2)C1 [Venetoclax] + C[C@@H](Nc1cc(F)cc(F)c1)c1cc(C(=O)N(C)C)cc2c(=O)cc(N3CCOCC3)oc12 [AZD8186] (first compound max 1 µM, 7x7, partner max 3 µM) | -0.0378 | -0.0542 | -0.0629 | -0.025 | -0.0182 | -0.06 | -0.0167 | 0.0074 | 0.0888 | -0.0335 | -0.034 | -0.0019 | -0.0245 | -0.0251 | -0.0218 | -0.0268 | -0.0304 | 0.139 | 0.0025 | 0.0808
CC1(C)CCC(CN2CCN(c3ccc(C(=O)NS(=O)(=O)c4ccc(NCC5CCOCC5)c([N+](=O)[O-])c4)c(Oc4cnc5[nH]ccc5c4)c3)CC2)=C(c2ccc(Cl)cc2)C1 [Venetoclax] + Cc1cc2ncnn2cc1Nc1ncc2c(n1)n(C1CCOCC1)c(=O)n2C [AZD7648] (first compound max 1 µM, 7x7, partner max 10 µM) | -0.0384 | -0.0721 | -0.0584 | -0.0499 | -0.0266 | -0.0235 | -0.0083 | -0.0491 | -0.0081 | 0.0149 | 0.0211 | -0.0387 | -0.0034 | -0.0014 | -0.0103 | -0.01 | -0.0151 | 0.0222 | -0.0139 | 0.0157
CC1(C)CCC(CN2CCN(c3ccc(C(=O)NS(=O)(=O)c4ccc(NCC5CCOCC5)c([N+](=O)[O-])c4)c(Oc4cnc5[nH]ccc5c4)c3)CC2)=C(c2ccc(Cl)cc2)C1 [Venetoclax] + Cn1cnc2c(F)c(Nc3ccc(Br)cc3Cl)c(C(=O)NOCCO)cc21 [Selumetinib] (first compound max 1 µM, 7x7, partner max 3 µM) | -0.0169 | -0.0386 | -0.101 | -0.141 | -0.0074 | -0.0744 | -0.0256 | -0.0303 | 0.0401 | -0.0499 | -0.0396 | -0.0378 | 0.0025 | -0.0518 | -0.0184 | -0.0162 | -0.0579 | 0.0356 | -0.0216 | -0.0238
